Laboratory results from PubChem BioAssay (NCI).
Several values for one entry are separate records, joined by “and”; a condition that tells them apart may be missing. Equal values may be shown once.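 Exposure lasted 48 hours, with cells grown in 96-well plates and compounds tested at five concentrations. GI50 marks 50% less growth. At the TGI there is no net growth.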

Tests used:
Experiment in all cases: inhibition of tumour cell growth, NCI panel, 48 h
RXF 393 renal = test system: RXF 393 renal
SR leukemia = test system: SR leukemia
NCI-H460 lung = test system: NCI-H460 lung
OVCAR-5 ovarian = test system: OVCAR-5 ovarian
SW-620 colon = test system: SW-620 colon
EKVX NSCLC = test system: EKVX NSCLC
TK-10 renal = test system: TK-10 renal
SNB-75 CNS = test system: SNB-75 CNS
COLO 205 colon = test system: COLO 205 colon
NCI-H522 lung = test system: NCI-H522 lung

Structure (SMILES)	TGI (RXF 393 renal)	TGI (SR leukemia)	TGI (NCI-H460 lung)	TGI (OVCAR-5 ovarian)	TGI (SW-620 colon)	TGI (EKVX NSCLC)	TGI (TK-10 renal)	TGI (SNB-75 CNS) [µM]	TGI (COLO 205 colon)	TGI (NCI-H522 lung)	GI50 (RXF 393 renal) [µM]	GI50 (SR leukemia)	GI50 (NCI-H460 lung) [µM]	GI50 (OVCAR-5 ovarian)	GI50 (SW-620 colon) [µM]	GI50 (EKVX NSCLC) [µM]	GI50 (TK-10 renal) [µM]	GI50 (SNB-75 CNS) [µM]	GI50 (COLO 205 colon)	GI50 (NCI-H522 lung)
COC1OC(CO)C(O)C1N (configuration not stated)	> 100 µM	> 100 µM	> 100 µM	> 100 µM	> 100 µM	> 100 µM	> 100 µM	> 100	> 100 µM	> 100 µM										
COc1ccc2cc(-c3c(-c4ccncc4)nc(-c4ccc(S(C)(=O)=O)cc4C)n3C)ccc2c1	20.7 µM	> 25 µM	> 25 µM	> 25 µM	> 25 µM	> 25 µM	23.2 µM	> 25	> 20.1 µM	19 µM	3.99	13 µM	7.77	14.7 µM	9.68	7.45	5.82	6.67	8.25 µM	4.45 µM
N#CCCN(CCC#N)c1ccc(C(Sc2ccccc2)C(NC(=O)c2cc([N+](=O)[O-])ccc2Cl)C(=O)Sc2ccccc2)cc1 (configuration not stated)	5.81 µM and 3.28 µM	3.9 µM	16.8 µM	11.7 µM	14.3 µM	9.96 µM and 25.5 µM	9.62 µM	7.19	6.75 µM and 7.77 µM	5.5 µM and 1.6 µM	0.415				3.77	5.74	3.97	1.85	2.9 µM	
COc1ccccc1/C=C/C(=O)c1ccccc1	16.1 µM		31.9 µM	36.5 µM	7.08 µM	28.5 µM	36.5 µM	27.1	42.1 µM	17.4 µM	5.94	1.77 µM	13.7	18.9 µM	2.66	11	21.2	13.1	16.9 µM	4.11 µM
COc1ccc(Cn2cc3c(c2)-c2oncc2CC3)cc1	28.1 µM	5.38 µM	16.5 µM	> 100 µM	> 100 µM	> 100 µM	86.8 µM	40.5	14.5 µM	16.7 µM	5.25	1.41 µM	3.47	8.6 µM	2.8	12.7	8.76	2.95	3.59 µM	3.24 µM
C/C=C1\NC(=O)[C@H]2CSSCCC=C[C@H](CC(=O)N[C@H](C(C)C)C(=O)N2)OC(=O)[C@H](C(C)C)NC1=O	0.0101 µM and 0.00253 µM	0.221 µM and 0.0286 µM and 0.047 µM			< 0.01 µM and 0.0195 µM and < 0.0161 µM				< 0.01 µM and 0.000811 µM	< 0.01 µM and 0.000166 µM	< 0.01	< 0.01 µM and 0.000119 µM	< 0.01	< 0.01 µM and 0.000261 µM	< 0.01	< 0.01	< 0.01	< 0.0104	< 0.01 µM and 0.000172 µM	< 0.01 µM and 0.000105 µM
OC1(c2ccccc2)OC(C#Cc2ccccc2)(c2ccccc2)c2ccccc21 (configuration not stated)	5.58 µM	9.39 µM	17.7 µM	16.8 µM	15.4 µM	11.9 µM	26.2 µM	20.4	5.38 µM	20.3 µM										
COc1cc(-c2cn(-c3ccc(Cl)c(Cl)c3)c(=O)n2C(C)=O)cc(OC)c1OC	14.9 µM	34.5 µM	25.1 µM	27.3 µM	29.8 µM	8.26 µM	31 µM	33.8	21.7 µM	30 µM	3.34	14.8 µM	10.5	13 µM	12.9	2.6	12.2	9.64	7.9 µM	13.3 µM
COc1ccc(N2C(=O)[C@H]3CC(C)c4c([nH]c5ccccc45)[C@H]3C2=O)cc1 (some centres not stated)	9.75 µM	> 100 µM	41.9 µM	> 85.6 µM	> 86.8 µM	> 95 µM	52.7 µM	12.5	9.11 µM	4.24 µM										
Cc1sc2nc3c4ccccc4c(NCCCN(C)C)nn3c(=O)c2c1C	19.8 µM	3.52 µM	5.35 µM	28.5 µM	4.55 µM	35.8 µM	28.9 µM	16.4	2.79 µM	28.8 µM	5.2	1.33 µM	1.08	14.2 µM	1.67	15.7	13.6	3.46	1.43 µM	12.4 µM
NC(=O)c1cc2c3ccccc3ccn2c1-c1ccccc1	2.26 µM	3.75 µM	10.5 µM	36.7 µM	25 µM	45.3 µM	24 µM	> 46.9	2.31 µM	20.8 µM	0.0462	0.0933 µM	0.042	5.6 µM	0.0357	0.396	0.719	0.758	0.454 µM	0.0666 µM
COc1ccc(Cn2c3c(cc(OS(=O)(=O)C(F)(F)F)c2=O)Cc2ccccc2-3)cc1	50 µM and > 100 µM	50 µM and 20.1 µM	50 µM and 36.4 µM	50 µM and > 100 µM	50 µM and > 100 µM	50 µM and > 100 µM	50 µM and > 100 µM	> 100	50 µM and > 100 µM	50 µM and > 100 µM				> 100 µM	5.29	3.36	19.5	> 100	61.1 µM	7.24 µM
COc1cc(/C=C2\C(=O)Nc3ccc(N(C)C)cc32)cc(OC)c1OC	1.28 µM	2.4 µM	> 29.1 µM	> 80.2 µM	> 100 µM	> 100 µM	40.6 µM	6.33	4.73 µM	5.75 µM	0.24	0.34 µM	2.98	5.86 µM	2.7	5.25	6.42	1.74	1.89 µM	1.47 µM
